From article PMC3565832 (mBio, 2013)

Test system: HSV-1
Experiment: HSV-1 IE gene expression in HeLa cells
Type: cell-based
Conditions: 50 µM, 5 h pretreatment, HSV-1 0.1 PFU/cell for 2 h

C[C@H](NCc1ccc(OCc2cccc(F)c2)cc1)C(N)=O [Safinamide, safinamide]
inhibition of expression of viral IE (ICP27 and ICP4) genes: did not show substantial inhibition
